In PubChem BioAssay (NCI):
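Here, GI50 denotes the concentration required for 50% inhibition of growth. The concentration for full growth arrest is given as TGI.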

Columns and labels:
Assay in all cases: NCI anticancer screen, dose series, 384-well format; in the data active means GI50 below about 0.43 µM; inactive means the rest
SNB-75 CNS = system: SNB-75 CNS
NCI-H322M lung = system: NCI-H322M lung
OVCAR-8 ovarian = system: OVCAR-8 ovarian
SF-295 CNS = system: SF-295 CNS
MOLT-4 leukemia = system: MOLT-4 leukemia
RPMI-8226 leukemia = system: RPMI-8226 leukemia
CCRF-CEM leukemia = system: CCRF-CEM leukemia
ACHN renal = system: ACHN renal
RXF 393 renal = system: RXF 393 renal
SK-MEL-5 melanoma = system: SK-MEL-5 melanoma
EKVX NSCLC = system: EKVX NSCLC
COLO 205 colon = system: COLO 205 colon
786-0 renal = system: 786-0 renal
NCI-H460 NSCLC = system: NCI-H460 NSCLC
U251 glioblastoma = system: U251 glioblastoma
MDA-MB-468 breast = system: MDA-MB-468 breast
HOP-62 NSCLC = system: HOP-62 NSCLC
HOP-92 NSCLC = system: HOP-92 NSCLC
SN12C renal = system: SN12C renal
MCF7 breast = system: MCF7 breast
DU-145 prostate = system: DU-145 prostate
HT29 colon = system: HT29 colon
NCI-H23 lung = system: NCI-H23 lung
NCI-H522 lung = system: NCI-H522 lung
TK-10 renal = system: TK-10 renal
HCT-15 colon = system: HCT-15 colon
UACC-62 melanoma = system: UACC-62 melanoma
IGROV1 ovarian = system: IGROV1 ovarian
UACC-257 melanoma = system: UACC-257 melanoma
KM12 colon = system: KM12 colon
OVCAR-5 ovarian = system: OVCAR-5 ovarian
A549 NSCLC = system: A549 NSCLC
CAKI-1 renal = system: CAKI-1 renal
MDA-MB-435 melanoma = system: MDA-MB-435 melanoma
BT-549 breast = system: BT-549 breast
HS 578T breast = system: HS 578T breast
SK-MEL-2 melanoma = system: SK-MEL-2 melanoma
T-47D breast = system: T-47D breast
SK-OV-3 ovarian = system: SK-OV-3 ovarian
HL-60(TB) leukemia = system: HL-60(TB) leukemia
M14 melanoma = system: M14 melanoma
SK-MEL-28 melanoma = system: SK-MEL-28 melanoma
NCI/ADR-RES ovarian = system: NCI/ADR-RES ovarian
SR leukemia = system: SR leukemia
MDA-MB-231 breast = system: MDA-MB-231 breast
HCC-2998 colon = system: HCC-2998 colon
OVCAR-4 ovarian = system: OVCAR-4 ovarian
PC-3 prostate = system: PC-3 prostate
SW-620 colon = system: SW-620 colon
A498 renal = system: A498 renal
MALME-3M melanoma = system: MALME-3M melanoma
OVCAR-3 ovarian = system: OVCAR-3 ovarian
SF-539 CNS = system: SF-539 CNS
NCI-H226 lung = system: NCI-H226 lung
SF-268 CNS = system: SF-268 CNS
SNB-19 CNS = system: SNB-19 CNS

O=c1[nH]c(-c2ccc(C(F)(F)F)cc2)nc2c1CSCC2
inactive: GI50 (SNB-75 CNS) 24.5 µM | GI50 (NCI-H322M lung) > 100 µM | GI50 (OVCAR-8 ovarian) > 100 µM | GI50 (SF-295 CNS) > 100 µM | GI50 (MOLT-4 leukemia) 68.7 µM | GI50 (RPMI-8226 leukemia) 78.3 µM | GI50 (CCRF-CEM leukemia) 88.6 µM | GI50 (ACHN renal) > 100 µM | GI50 (RXF 393 renal) 13.5 µM | GI50 (SK-MEL-5 melanoma) 52.5 µM | GI50 (EKVX NSCLC) 24 µM | GI50 (COLO 205 colon) > 100 µM | GI50 (786-0 renal) > 100 µM | GI50 (NCI-H460 NSCLC) > 100 µM | GI50 (U251 glioblastoma) > 100 µM | GI50 (MDA-MB-468 breast) 7.03 µM | GI50 (HOP-62 NSCLC) 79.5 µM | GI50 (HOP-92 NSCLC) > 100 µM | GI50 (SN12C renal) > 100 µM | GI50 (MCF7 breast) > 100 µM | GI50 (DU-145 prostate) > 100 µM | GI50 (HT29 colon) > 100 µM | GI50 (NCI-H23 lung) 25.7 µM | GI50 (NCI-H522 lung) 28.8 µM | GI50 (TK-10 renal) > 100 µM | GI50 (HCT-15 colon) > 100 µM | GI50 (UACC-62 melanoma) > 100 µM | GI50 (IGROV1 ovarian) > 100 µM | GI50 (UACC-257 melanoma) > 100 µM | GI50 (KM12 colon) > 100 µM | GI50 (OVCAR-5 ovarian) > 100 µM | GI50 (A549 NSCLC) > 100 µM | GI50 (CAKI-1 renal) 3.83 µM | GI50 (MDA-MB-435 melanoma) > 100 µM | GI50 (BT-549 breast) 30.5 µM | GI50 (HS 578T breast) > 100 µM | GI50 (SK-MEL-2 melanoma) 72.9 µM | GI50 (T-47D breast) > 100 µM | GI50 (SK-OV-3 ovarian) 14.7 µM | GI50 (HL-60(TB) leukemia) > 100 µM | GI50 (M14 melanoma) > 100 µM | GI50 (SK-MEL-28 melanoma) > 100 µM | GI50 (NCI/ADR-RES ovarian) > 100 µM | GI50 (SR leukemia) > 100 µM | GI50 (MDA-MB-231 breast) > 100 µM | GI50 (HCC-2998 colon) > 100 µM | GI50 (OVCAR-4 ovarian) 0.818 µM | GI50 (PC-3 prostate) > 100 µM | GI50 (SW-620 colon) > 100 µM | GI50 (A498 renal) 95.7 µM | GI50 (MALME-3M melanoma) 25 µM | GI50 (OVCAR-3 ovarian) 13.5 µM | GI50 (SF-539 CNS) > 100 µM | GI50 (NCI-H226 lung) 13.3 µM | GI50 (SF-268 CNS) 98.9 µM | GI50 (SNB-19 CNS) > 100 µM
53 µM: TGI (MDA-MB-468 breast)
> 100 µM: TGI (SNB-75 CNS) | TGI (NCI-H322M lung) | TGI (OVCAR-8 ovarian) | TGI (SF-295 CNS) | TGI (MOLT-4 leukemia) | TGI (RPMI-8226 leukemia) | TGI (CCRF-CEM leukemia) | TGI (ACHN renal) | TGI (RXF 393 renal) | TGI (SK-MEL-5 melanoma) | TGI (EKVX NSCLC) | TGI (COLO 205 colon) | TGI (786-0 renal) | TGI (NCI-H460 NSCLC) | TGI (U251 glioblastoma) | TGI (HOP-62 NSCLC) | TGI (HOP-92 NSCLC) | TGI (SN12C renal) | TGI (MCF7 breast) | TGI (DU-145 prostate) | TGI (HT29 colon) | TGI (NCI-H23 lung) | TGI (NCI-H522 lung) | TGI (TK-10 renal) | TGI (HCT-15 colon) | TGI (UACC-62 melanoma) | TGI (IGROV1 ovarian) | TGI (UACC-257 melanoma) | TGI (KM12 colon) | TGI (OVCAR-5 ovarian) | TGI (A549 NSCLC) | TGI (CAKI-1 renal) | TGI (MDA-MB-435 melanoma) | TGI (BT-549 breast) | TGI (HS 578T breast) | TGI (SK-MEL-2 melanoma) | TGI (T-47D breast) | TGI (SK-OV-3 ovarian) | TGI (HL-60(TB) leukemia) | TGI (M14 melanoma) | TGI (SK-MEL-28 melanoma) | TGI (NCI/ADR-RES ovarian) | TGI (SR leukemia) | TGI (MDA-MB-231 breast) | TGI (HCC-2998 colon) | TGI (OVCAR-4 ovarian) | TGI (PC-3 prostate) | TGI (SW-620 colon) | TGI (A498 renal) | TGI (MALME-3M melanoma) | TGI (OVCAR-3 ovarian) | TGI (SF-539 CNS) | TGI (NCI-H226 lung) | TGI (SF-268 CNS) | TGI (SNB-19 CNS)
